Laboratory results published in paper PMC8954547, “Nonpeptidic Z360-Analogs Tagged with Trivalent Radiometals as Anti-CCK2R Cancer Theranostic Agents: A Preclinical Study” (Pharmaceutics, 2022).
*1 amine or outer side, *2 acyl side, *3 side chain or, on linkers, in order; H or OH if unused. Where a SMILES comes first, the peptide text is derived from it. [ ]: non-standard residue; d: D form. The star is where a group is joined. X1 = CC(C)(C)C(=O)CN1C(=O)[C@H](N*)CN(C2CCCCC2)c2ccccc21; pGlu = O=C1CC[C@@H](C(=O)O)N1; PEG3 = NCCOCCOCCOCCC(=O)O; 3Abz = Nc1cccc(C(=O)O)c1; X2 = NCCNCC(CNCCN)C(=O)*; CO = O=C([*:1])[*:2]

What was measured:
[1] = biological target: T1, human CCK2i4svR splice variant (Homo sapiens, UniProt P32239); experiment: Competition binding against [125I][I-Tyr12,Leu15]gastrin-17 in HEK293-CCK2i4svR cell membranes; conditions: vs [125I][I-Tyr12,Leu15]gastrin-17, HEK293-CCK2i4svR cell membranes, 1 h 22 °C; mean ± SD
T1 construct: expressed in transfected cells; membrane homogenates
T1 sequence (P32239 1-516 isoform P32239-2): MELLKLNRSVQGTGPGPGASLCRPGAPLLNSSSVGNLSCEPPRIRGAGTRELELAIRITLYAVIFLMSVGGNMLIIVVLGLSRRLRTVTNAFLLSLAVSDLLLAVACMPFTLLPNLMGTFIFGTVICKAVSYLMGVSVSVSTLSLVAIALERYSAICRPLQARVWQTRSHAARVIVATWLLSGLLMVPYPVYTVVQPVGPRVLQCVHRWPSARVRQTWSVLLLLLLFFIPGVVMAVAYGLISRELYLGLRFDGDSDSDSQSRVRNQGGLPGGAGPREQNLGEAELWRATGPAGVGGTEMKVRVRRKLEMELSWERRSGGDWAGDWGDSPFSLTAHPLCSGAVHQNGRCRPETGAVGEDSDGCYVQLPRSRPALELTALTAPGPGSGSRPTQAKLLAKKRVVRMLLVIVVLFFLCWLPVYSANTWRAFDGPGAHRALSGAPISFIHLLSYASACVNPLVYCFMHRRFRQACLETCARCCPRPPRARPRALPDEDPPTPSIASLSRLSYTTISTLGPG
Protocol: Competition binding assays for the metal-free GAS1/2/3 and the corresponding metal-tagged [^natGa]Ga/[^natIn]In/[^natLu]Lu-GAS1/3 and [^natGa]Ga/[^natIn]In-GAS2 analogs were conducted against the [^125I][I-Tyr^12,Leu^15]gastrin-17 radioligand in membrane homogenates harvested from HEK293-CCK2i4svR cells, as previously described. Briefly, each of the above analogs, or unmodified Z360 serving as control, was incubated in triplicates of increasing concentrations (10^−13–10^−6 M) with [^125I][I-Tyr^12,Leu^15]gastrin-17 (50 pM, ≈40,000 cpm) and membrane homogenate in binding buffer (300 µL, pH 7.4, 50 mM HEPES, 1% BSA, 5.5 mM MgCl2, 35 µM bacitracin) for 1 h at 22 °C. Incubation was interrupted by rapid filtration through glass fiber filters (Whatman GF/B, presoaked in binding buffer for at least 1 h) on a Brandel Cell Harvester (Adi Hassel Ingenieur Büro, Munich, Germany) and subsequent rinsing with ice-cold washing buffer (10 mM HEPES pH 7.4, 150 mM NaCl). The radioactivity content of individual filters was measured in a gamma counter (automated multi-sample well-type instrument with a NaI(Tl) 3′ crystal, Canberra Packard Cobra^TM Quantum U5003/1, Auto-Gamma® counting system). The 50% inhibitory concentration (IC50) was determined by nonlinear regression analysis according to a one-site model using PRISM 6 (Graph Pad Software, San Diego, CA, USA). Values are expressed as mean ± standard deviation (SD) of three independent experiments performed in triplicate.

human CCK2R [2] = biological target: T2, human CCK2R (Homo sapiens, UniProt P32239); experiment: FRET-based Ca2+ mobilization assay in HEK293-hCCK2R/YC3.60 cells; type: cell-based
T2 construct: host or cells: HEK293 clone #21 (HEK293-hCCK2R/YC3.60), stably co-expressing the Ca2+ biosensor YC3.60
T2 sequence (P32239 1-447): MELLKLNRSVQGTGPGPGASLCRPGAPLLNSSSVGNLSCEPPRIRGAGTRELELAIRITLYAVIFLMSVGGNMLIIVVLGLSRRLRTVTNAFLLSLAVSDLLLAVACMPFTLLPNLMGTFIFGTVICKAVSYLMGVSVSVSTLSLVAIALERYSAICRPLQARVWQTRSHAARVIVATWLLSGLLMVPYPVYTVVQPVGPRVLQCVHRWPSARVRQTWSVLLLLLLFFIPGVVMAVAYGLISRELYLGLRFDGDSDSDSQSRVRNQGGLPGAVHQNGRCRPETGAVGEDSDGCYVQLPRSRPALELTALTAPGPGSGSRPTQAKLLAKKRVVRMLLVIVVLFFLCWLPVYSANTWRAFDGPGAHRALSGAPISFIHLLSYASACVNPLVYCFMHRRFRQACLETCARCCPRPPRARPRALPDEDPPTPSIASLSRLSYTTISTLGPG
Protocol: For most biological experiments, HEK293 cells transfected to stably express the human CCK2i4svR splice variant were used, kindly provided by Dr. P. Laverman (Radboud University Nijmegen Medical Center, Nijmegen, The Netherlands) and Prof. M. R. Hellmich (University of Texas Medical Branch, Galveston, TX, USA), while non-transfected wtHEK293 cells served as negative controls. Cells were cultured in DMEM with GlutaMAX-I supplemented with 10% (v/v) fetal bovine serum (FBS), 100 U/mL penicillin and 100 μg/mL streptomycin and kept in a controlled humidified air containing 5% CO2 at 37 °C; the medium for transfected cells was additionally supplemented with 400 μg/mL G418. All culture media were purchased from Gibco BRL, Life Technologies (Grand Island, NY, USA) and supplements were supplied by Biochrom KG Seromed (Berlin, Germany). For Ca^2+-mobilization assays, HEK293 cell clones (generated by O.G. Chepurny in the G.G. Holz laboratory) were transfected to stably co-express either both the human CCK2R and the Ca^2+ biosensor YC3.60 (clone #21) or only YC3.60 (clone #5, negative controls devoid of CCK2R expression) (Supplementary File). Ca^2+ mobilization assays were conducted by FRET-based detection of Ca^2+ in HEK293-hCCK2R/YC3.60 and HEK293-YC3.60 cells (negative controls) for GAS1/2/3 as well as for DG2, [Leu^15]gastrin-17 and Z360 (controls), as outlined in the Supplementary File. […]
Table S2. Analytical HPLC Data for (Radio)Metal-Tagged GAS1/2/3 (tR (min) gamma/UV trace). compound - [67Ga]Ga/[natGa]Ga [111In]In/[natIn]In [177Lu]Lu/[natLu]Lu […]
(§1) Purity as determined by HPLC exceeded 97% in all cases. system 1 was applied: RP-HPLC with twin UV detection at 220 nm and gamma detection; a Symmetry Shield RP18 column (5 μm, 3.9 mm × 150 mm) was eluted at a flow rate of 1 mL/min with linear gradient: 100%A/0% B to 70%A/30% B in 5 min and then 70%A/30% B to 55%A/45% B in 60 min, with A = 0.1% TFA in H2O (v/v) and B = MeCN.
Preparation of [natGa]Ga-GAS1/2/3, [natIn]In-GAS1/2/3 and [natLu]Lu-GAS1/3 To an Eppendorf Protein LoBind® centrifuge tube containing GAS1/2/3 precursor stock solution (60 μL, 120 μg, ≈60 nmol), a stock solution (60 μL, 2 mM, 120 nmol) of the respective nitrate salt dissolved in 1 M sodium acetate buffer of pH 4.0 (for gallium), 4.6 (for indium) and 5.0 (for lutetium) was added. The mixture was heated at 75 °C for 1 h. […]
action mixture using HPLC system 1, allowing for base line separation of metal-tagged from metal-free GAS1/2/3. Retention times (UV trace, tR in min) of all GAS species were included in Table S2. The metal-tagged GAS solutions were used as such in in vitro com-petition binding assays assuming a 0.5 mM CCK2R-ligand concentration.
Methods for FRET-based detection of Ca2+ in HEK293 cells were descri bed previ ousl y. The clone #21 HEK293 cell line (HEK293-hCCK2R/YC3.60) stably co-expressing the human CCK2R and the Ca2+ biosensor YC3.60 was generated a ccording to published methods. The clone #5 HEK293 cell line (HEK293-YC3.60) that expressed only YC3.60 served as a negative control and was generated in a similar matter. […] The human CCK2R (NM_176875) in pCMV6-Entry vector contained the receptor’s complete open reading frame with a Myc-DDK epitope tag (OriGene Technologies; Cat. No. R200676). Test compounds included human [Leu15]-gastrin- […]

human CCK2R [3] = biological target: T2, human CCK2R; parameters: method as in PMID 32568549; conditions: cited from earlier work
HEK293-YC3.60 cells = experiment: FRET-based Ca2+ mobilization assay in HEK293-YC3.60 cells (negative controls devoid of CCK2R); type: cell-based, human; conditions: HEK293-YC3.60 clone #5
Protocol: For most biological experiments, HEK293 cells transfected to stably express the human CCK2i4svR splice variant were used, kindly provided by Dr. P. Laverman (Radboud University Nijmegen Medical Center, Nijmegen, The Netherlands) and Prof. M. R. Hellmich (University of Texas Medical Branch, Galveston, TX, USA), while non-transfected wtHEK293 cells served as negative controls. Cells were cultured in DMEM with GlutaMAX-I supplemented with 10% (v/v) fetal bovine serum (FBS), 100 U/mL penicillin and 100 μg/mL streptomycin and kept in a controlled humidified air containing 5% CO2 at 37 °C; the medium for transfected cells was additionally supplemented with 400 μg/mL G418. […]
as §1, with “MeCN. […]” for “MeCN.”
Methods for FRET-based detection of Ca2+ in HEK293 cells were descri bed previ ousl y. […] The human CCK2R (NM_176875) in pCMV6-Entry vector contained the receptor’s complete open reading frame with a Myc-DDK epitope tag (OriGene Technologies; Cat. No. R200676). […]

CC(C)(C)C(=O)CN1C(=O)C(NC(=O)Nc2cccc(C(=O)O)c2)CN(C2CCCCC2)c2ccccc21 (centres unmarked) [Z360]
IC50 [1]: 1.2 ± 0.5 nM
Concentration threshold for agonistic properties (Ca2+ mobilization) (human CCK2R [2]): > 100 nM

CC(C)(C)C(=O)CN1C(=O)[C@H](NC(=O)Nc2cccc(C(=O)NCCOCCOCCOCCC(=O)N[C@H](CCC(=O)O)C(=O)N[C@H](CCC(=O)O)C(=O)N[C@H](CCC(=O)O)C(=O)N[C@H](CCC(=O)O)C(=O)N[C@@H](CCCCNC(=O)C(CNCCN)CNCCN)C(=O)O)c2)CN(C2CCCCC2)c2ccccc21 [DGA1, Z360-PEG3-DGlu-DGlu-DGlu-DGu-Lys(N4)−OH] ({X1-CO-3Abz-PEG3}-[dE][dE][dE][dE]K(X2)-OH)
Functional profile at the CCK2R (human CCK2R [3]): pure antagonist profile

CC(C)C[C@H](NC(=O)[C@H](Cc1c[nH]c2ccccc12)NC(=O)CNC(=O)[C@H](Cc1ccc(O)cc1)NC(=O)[C@H](C)NC(=O)[C@H](CCC(=O)O)NC(=O)[C@H](CCC(=O)O)NC(=O)[C@H](CCC(=O)O)NC(=O)[C@H](CCC(=O)O)NC(=O)[C@H](CCC(=O)O)NC(=O)[C@H](CC(C)C)NC(=O)[C@H](Cc1c[nH]c2ccccc12)NC(=O)[C@@H]1CCCN1C(=O)CNC(=O)[C@@H]1CCC(=O)N1)C(=O)N[C@@H](CC(=O)O)C(=O)N[C@@H](Cc1ccccc1)C(N)=O [[Leu^15]gastrin-17, pGlu-Gly-Pro-Trp-Leu-(Glu)5-Ala-Tyr-Gly-Trp-Leu-Asp-Phe-NH2, reference compound] ([pGlu]GPWLEEEEEAYGWLDF-NH2)
Concentration at which the CCK2R is activated (Ca2+ mobilization) (human CCK2R [2]): 100 pM
Ca2+ response in cells devoid of CCK2R expression (HEK293-YC3.60 cells): failed to respond

CC(C)(C)C(=O)CN1C(=O)[C@H](NC(=O)Nc2cccc(C(=O)NCCOCCOCCOCCNC(=O)[C@H](CCC(=O)O)NC(=O)CN3CCN(CC(=O)O)CCN(CC(=O)O)CCN(CC(=O)O)CC3)c2)CN(C2CCCCC2)c2ccccc21 [GAS1, DOTA-DGlu-HN(PEG3)NH-Z360]
IC50 [1]: 5.9 ± 1.8 nM
Concentration threshold for agonistic properties (Ca2+ mobilization) (human CCK2R [2]): > 100 nM

CC(C)(C)C(=O)CN1C(=O)[C@H](NC(=O)Nc2cccc(C(=O)NCCOCCOCCOCCNC(=O)[C@H](CCC(=O)O)NC(=O)CCC(C(=O)O)N3CCN(CC(=O)O)CCN(CC(=O)O)CC3)c2)CN(C2CCCCC2)c2ccccc21 (some centres unmarked) [GAS2, NODAGA-DGlu-HN(PEG3)NH-Z360]
IC50 [1]: 4.1 ± 1.1 nM
Concentration threshold for agonistic properties (Ca2+ mobilization) (human CCK2R [2]): > 100 nM

CC(C)(C)C(=O)CN1C(=O)[C@H](NC(=O)Nc2cccc(C(=O)NCCOCCOCCOCCNC(=O)[C@H](CCC(=O)O)NC(=O)CCC(C(=O)O)N3CCN(CC(=O)O)CCN(CC(=O)O)CCN(CC(=O)O)CC3)c2)CN(C2CCCCC2)c2ccccc21 (some centres unmarked) [GAS3, DOTAGA-DGlu-HN(PEG3)NH-Z360]
IC50 [1]: 3.1 ± 1.5 nM
Concentration threshold for agonistic properties (Ca2+ mobilization) (human CCK2R [2]): > 100 nM
